Measured values as given in patent publication US10413505B1, “Pharmaceutical compositions and methods of using the same” (priority 2017, dated 2019).
Marks after values point to notes of the source that are not given here.

Experiments:
[1] = Example 1 single-dose plasma pharmacokinetics after intranasal administration; assay type: in vivo, human; conditions: healthy subjects; single intranasal 160 mg cocaine HCl; plasma, >12 h after dosing
Experimental: Single-dose plasma and urinary pharmacokinetics of the pharmaceutical composition following intranasal administration was characterized in this study. This was a single-dose study in 30 healthy volunteers. The objective of the study was to examine the systemic pharmacokinetics of the pharmaceutical composition following acute, topical intranasal administration.
A single dose of a pharmaceutical composition was administered to both nostrils using cottonoid pledgets. […] Each pledget absorbed approximately 1 mL of pharmaceutical composition (i.e., 40 mg cocaine hydrochloride). Two soaked pledgets were placed into each nasal cavity of the subject and against the anterior septum for 20 minutes; thus, a total dose of 160 mg of cocaine hydrochloride was administered.
Blood samples were collected pre-dose (30 minutes before pledget insertion), and 7.5, 15, 20, 30, 45, 60, 75, 90, and 105 minutes and 2, 3, 4, 6, 8, 10, and 12 hours from the start of application of the pharmaceutical composition.
The effect of gender on Cmax, Tmax, AUClast, AUCinf, and t1/2 was determined. The effects of age, body weight, and BMI on AUClast were determined.

[2] = Example 3 urinary pharmacokinetics, normal hepatic function vs hepatic impairment; assay type: in vivo, human; conditions: for Urine Recovery as % of Dose, Geomean / Urine Recovery as % of Dose, Mean: 0-32 h, single intranasal dose; for CLr Geomean / CLr Mean: Table 26
Experimental: Urine was collected prior to dosing and from 0-2, 2-4, 4-8, 8-12, 12-24, and 24-32 hours after beginning of dose application. […] Urinary pharmacokinetic parameters included total urinary recovery (μg), urinary recovery as a percentage of dose, and CLr.

[3] = Example 2 plasma pharmacokinetics, normal renal function vs severe renal impairment; conditions: single intranasal 160 mg cocaine HCl, plasma
[4] = normal hepatic function, single intranasal 160 mg cocaine HCl
[5] = subjects with hepatic impairment
[6] = subjects with hepatic impairment, 32 hours post administration
[7] = subjects with hepatic impairment, Table 30
[8] = subjects with normal hepatic function

COC(=O)[C@@H]1[C@H]2CC[C@@H](C[C@@H]1O)N2C [EME, ecgonine methyl ester]
plasma level not exceeded (metabolite not detectable in plasma) [1]: ≤ 50 ng/mL | Urine Recovery as % of Dose, Geomean ([2]; Impaired hepatic function): 2.43 % of Dose | Urine Recovery as % of Dose, Mean ([2]; Impaired hepatic function): 3.51 % of Dose | CLr Geomean ([2]; Impaired hepatic function): 10.2 L/h | CLr Mean ([2]; Impaired hepatic function): 10.9 L/h | Urine Recovery as % of Dose, Geomean ([2]; Normal hepatic function): 0.93 % of Dose | Urine Recovery as % of Dose, Mean ([2]; Normal hepatic function): 1.12 % of Dose | CLr Geomean ([2]; Normal hepatic function): 14.6 L/h | CLr Mean ([2]; Normal hepatic function): 17.2^d L/h | 0-32 h Urinary Recovery (geometric mean) [2, 4]: 875.2 µg | 0-32 h Urinary Recovery (mean) [2, 4]: 1048.23 µg | 0-32 h Urinary Recovery (median) [2, 4]: 1164.3 µg | Renal Clearance, geometric mean [2, 5]: 169.75 mL/min | Renal Clearance, mean [2, 5]: 181.23 mL/min | Renal Clearance, median [2, 5]: 160.92 mL/min | 0-32 h Urinary Recovery (geometric mean) [2, 6]: 2278.1 µg | 0-32 h Urinary Recovery (mean) [2, 6]: 3294 µg | 0-32 h Urinary Recovery (median) [2, 6]: 2249.7 µg | Renal Clearance, geometric mean [2, 7]: 169.753 mL/min | Renal Clearance, mean [2, 7]: 181.233 mL/min | Renal Clearance, median [2, 7]: 160.92 mL/min | Renal Clearance, geometric mean [2, 8]: 243.011 mL/min | Renal Clearance, mean [2, 8]: 286.128 mL/min | Renal Clearance, median [2, 8]: 219.782 mL/min | AUC0→t (Geometric mean) ([3]; normal renal function): 41.8 ng·h/mL | AUC0→t (Max) ([3]; normal renal function): 231 ng·h/mL | AUC0→t (Mean) ([3]; normal renal function): 64.0 ng·h/mL | AUC0→t (Median) ([3]; normal renal function): 46.3 ng·h/mL | AUC0→t (Min) ([3]; normal renal function): 9.3 ng·h/mL | AUC0→∞ (Geometric mean) ([3]; normal renal function): 79.3 ng·h/mL | AUC0→∞ (Max) ([3]; normal renal function): 241 ng·h/mL | AUC0→∞ (Mean) ([3]; normal renal function): 94.5 ng·h/mL | AUC0→∞ (Median) ([3]; normal renal function): 66.8 ng·h/mL | AUC0→∞ (Min) ([3]; normal renal function): 44.4 ng·h/mL | Clast (Geometric mean) ([3]; normal renal function): 1.505 ng/mL | Clast (Max) ([3]; normal renal function): 2.58 ng/mL | Clast (Mean) ([3]; normal renal function): 1.583 ng/mL | Clast (Median) ([3]; normal renal function): 1.42 ng/mL | Clast (Min) ([3]; normal renal function): 1.070 ng/mL | Cmax (Geometric mean) ([3]; normal renal function): 5.8 ng/mL | Cmax (Max) ([3]; normal renal function): 19.2 ng/mL | Cmax (Mean) ([3]; normal renal function): 7.5 ng/mL | Cmax (Min) ([3]; normal renal function): 1.8 ng/mL | Tlast (Geometric mean) ([3]; normal renal function): 12.3 h | Tlast (Max) ([3]; normal renal function): 32.0 h | Tlast (Mean) ([3]; normal renal function): 13.5 h | Tlast (Median) ([3]; normal renal function): 12.0 h | Tlast (Min) ([3]; normal renal function): 480 min | Tmax (Geometric mean) ([3]; normal renal function): 2.196 h | Tmax (Max) ([3]; normal renal function): 4.00 h | Tmax (Mean) ([3]; normal renal function): 2.698 h | Tmax (Median) ([3]; normal renal function): 3.0 h | Tmax (Min) ([3]; normal renal function): 20 min | t1/2 (Geometric mean) ([3]; normal renal function): 5.02 h | t1/2 (Max) ([3]; normal renal function): 6.67 h | t1/2 (Mean) ([3]; normal renal function): 5.12 h | t1/2 (Median) ([3]; normal renal function): 5.53 h | t1/2 (Min) ([3]; normal renal function): 217 min | AUC0→t (Geometric mean) ([3]; severe renal impairment): 180.2 ng·h/mL | AUC0→t (Max) ([3]; severe renal impairment): 382 ng·h/mL | AUC0→t (Mean) ([3]; severe renal impairment): 201.1 ng·h/mL | AUC0→t (Median) ([3]; severe renal impairment): 196 ng·h/mL | AUC0→t (Min) ([3]; severe renal impairment): 61.0 ng·h/mL | AUC0→∞ (Geometric mean) ([3]; severe renal impairment): 244.5 ng·h/mL | AUC0→∞ (Max) ([3]; severe renal impairment): 527 ng·h/mL | AUC0→∞ (Mean) ([3]; severe renal impairment): 267.5 ng·h/mL | AUC0→∞ (Median) ([3]; severe renal impairment): 242 ng·h/mL | AUC0→∞ (Min) ([3]; severe renal impairment): 143.9 ng·h/mL | Clast (Geometric mean) ([3]; severe renal impairment): 2.218 ng/mL | Clast (Max) ([3]; severe renal impairment): 5.85 ng/mL | Clast (Mean) ([3]; severe renal impairment): 2.46 ng/mL | Clast (Median) ([3]; severe renal impairment): 1.93 ng/mL | Clast (Min) ([3]; severe renal impairment): 1.51 ng/mL | Cmax (Geometric mean) ([3]; severe renal impairment): 10.3 ng/mL | Cmax (Max) ([3]; severe renal impairment): 20.5 ng/mL | Cmax (Mean) ([3]; severe renal impairment): 11.9 ng/mL | Cmax (Median) ([3]; severe renal impairment): 11.5 ng/mL | Cmax (Min) ([3]; severe renal impairment): 3.2 ng/mL | Tlast (Geometric mean) ([3]; severe renal impairment): 31.5 h | Tlast (Max) ([3]; severe renal impairment): 32.0 h | Tlast (Mean) ([3]; severe renal impairment): 31.5 h | Tlast (Median) ([3]; severe renal impairment): 32.0 h | Tlast (Min) ([3]; severe renal impairment): 1680 min | Tmax (Geometric mean) ([3]; severe renal impairment): 3.715 h | Tmax (Max) ([3]; severe renal impairment): 12.00 h | Tmax (Mean) ([3]; severe renal impairment): 4.53 h | Tmax (Median) ([3]; severe renal impairment): 4.00 h | Tmax (Min) ([3]; severe renal impairment): 90 min | t1/2 (Geometric mean) ([3]; severe renal impairment): 13.16 h | t1/2 (Max) ([3]; severe renal impairment): 25.70 h | t1/2 (Mean) ([3]; severe renal impairment): 13.97 h | t1/2 (Median) ([3]; severe renal impairment): 12.27 h | t1/2 (Min) ([3]; severe renal impairment): 488 min
